Experimental findings from patent publication US20160106721A1, “HUMAN THERAPEUTIC AGENTS” (Life Plus, LLC, priority 2014, published 2016) are described below.

The structures appear in SMILES notation.

Assay [1] deals with human lung cancer cells (H358). Kind of assay: cell death in lung cancer spheroids. In kind it is cell-based. As to conditions: 24 hour exposure, increasing doses. The procedure: (§1) The respective cells were individually cultured in a growth medium prepared using RPMI-1640 medium containing 11.1 mM D-glucose with 10% fetal bovine serum, 10 mM HEPES, 2 mM L-glutamine, 1 mM sodium pyruvate, 0.05 mM 2-mercaptoethanol, and Antibiotic-Antimycotic. These cells were maintained in T75 tissue culture flasks in a humidified incubator at 37° C. and 5% CO2. The media were changed on a third day after cell plating, and the cells were passaged on day 5 by trypsinization.
(§2) Custom-made micromolds with 100 μm diameter wells were loaded with the cells (U.S. Pat. No. 8,735,154, incorporated by reference herein). The media were changed every day by partial replacement. Cell aggregates were allowed to form in the micromolds for 72 hours and then were transferred to a 100 mm non-treated tissue culture dishes for 3 additional days. The spheroids were passed through 70 μm and 100 μm cell strainers (#3431751 and #43152, Corning, Tewksbury, Mass.) and maintained in HEPES Balanced Salt Solution comprised of: 20 mM HEPES, 114 mM NaCl, 4.7 mM KCl, 1.2 mM KH2PO4, 1.16 mM MgSO4, 2.5 mM CaCl2, 25.5 mM NaHCO3 and 0.2% bovine serum albumin (fatty acid free), pH 7.2.
The lymphomas treatment methods used were identical to those described in Example 2 relative to the pediatric leukemia cells, whereas the lung cancer treatment method was the same as described in Example 1.

Assay [2] has as its system human ovarian cancer cells (A1847). The experiment in a line: cell death in ovarian cancer spheroids. In kind it is cell-based. As to conditions: 24 hour exposure, increasing doses. Here is the method:
as §1, §2
(§3) The cells were treated and tested as set forth in Example 1.

For assay [3], the system named is human prostate cancer cells (22rv1). Kind of assay: cell death in prostate cancer spheroids. In kind it is cell-based. As to conditions: 24 hour exposure, increasing doses. The procedure: as §1, §2, §3
For a further assay, the system named is ovarian cancer cells. As to conditions: low doses of doxorubicin alone (up to 0.158 μM). The procedure: In this test, the synergism of GZ17-6.02 with doxorubicin (a common chemotherapy drug) was tested on ovarian cancer cells. In this test, increasing doses of doxorubicin were administered to ovarian cancer spheroids and cell deaths were measured, as described in Example 1. The protocol involved testing doxorubicin alone at various dosages (FIG. 8, doxorubicin alone—closed circles), with comparative tests using the various dosages of doxorubicin in combination with either 0.2 mg/mL (FIG. 8 open circles) or 0.4 mg/mL (FIG. 8 closed triangles) GZ17-6.02. Additionally, the induced cell death results from use of 0.2 mg/mL GZ17-6.02 alone (FIG. 8, line A) and 0.4 mg/mL GZ17-6.02 alone (FIG. 8, line B) were determined.

Regarding `COc1cc(C=O)ccc1O` [vanillin], the “cell death / anticancer effect (cell number)” value (from here on “cell death / anticancer effect”) in assay [1], in assay [2] and in assay [3] was “demonstrated anticancer effects” in each case.

For `COc1ccc2c3c([nH]c2c1)[C@@H](C)NCC3` [tetrahydro-harmine], the “cell death / anticancer effect” value in assay [1], in assay [2] and in assay [3] was “demonstrated anticancer effects” in each case.

With `COc1cccc(C=O)c1O` [O-vanillin], the “cell death / anticancer effect” value in assay [1], in assay [2] and in assay [3] was “demonstrated anticancer effects” in each case.

In the case of `COc1ccc2c3c([nH]c2c1)C(C)=NCC3` [harmaline], the “cell death / anticancer effect” value in assay [1], in assay [2] and in assay [3] was “demonstrated anticancer effects” each time.

Take `Cc1nccc2c1[nH]c1cc(O)ccc12.Cl` [harmole hydrochloride]: the “cell death / anticancer effect” value in assay [1], in assay [2] and in assay [3] was “demonstrated anticancer effects” each time.

Turning to `CC1=NCCc2c1[nH]c1cc(O)ccc21.Cl` [harmalol hydrochloride], the “cell death / anticancer effect” value in assay [1], in assay [2] and in assay [3] was “demonstrated anticancer effects” in each case.

In the case of `COc1ccc(C(=O)O)cc1O` [isovanillic acid], the “cell death / anticancer effect” value in assay [1], in assay [2] and in assay [3] was “demonstrated anticancer effects” in each case.

`COc1cccc2c1C(=O)c1c(O)c3c(c(O)c1C2=O)C[C@@](O)(C(=O)CO)C[C@@H]3O[C@H]1C[C@H](N)[C@H](O)[C@H](C)O1` [doxorubicin]: the “cell death, doxorubicin alone” value in the assay on ovarian cancer cells was “ineffective”.

Consider `COc1ccc(CO)cc1O` [isovanillyl alcohol], for which the “cell death / anticancer effect” value in assay [1], in assay [2] and in assay [3] was “demonstrated anticancer effects” throughout.
